Results published in ChEMBL document CHEMBL3797052 (Eur J Med Chem, 2016).

Legend:
Type in all cases: functional
[1] = Antiproliferative activity against human BT549 cells assessed as cell growth at 10^-5 M after 48 hrs by sulforhodamine B assay; conditions: BT-549, 48 h, read-out: Activity
[2] = Antiproliferative activity against human UACC257 cells assessed as cell growth at 10^-5 M after 48 hrs by sulforhodamine B assay; conditions: UACC-257, 48 h, read-out: Activity
[3] = Antiproliferative activity against human HCT116 cells assessed as cell growth at 10^-5 M after 48 hrs by sulforhodamine B assay; conditions: HCT-116, 48 h, read-out: Activity
EKVX = experiment: Antiproliferative activity against human EKVX cells assessed as cell growth at 10^-5 M after 48 hrs by sulforhodamine B assay; conditions: read-out: Activity
SK-MEL-5 = experiment: Antiproliferative activity against human SK-MEL-5 cells assessed as cell growth at 10^-5 M after 48 hrs by sulforhodamine B assay; conditions: SK-MEL-5, 48 h, read-out: Activity
M14 = experiment: Antiproliferative activity against human M14 cells assessed as cell growth at 10^-5 M after 48 hrs by sulforhodamine B assay; conditions: M14, 48 h, read-out: Activity
ACHN = experiment: Antiproliferative activity against human ACHN cells assessed as cell growth at 10^-5 M after 48 hrs by sulforhodamine B assay; conditions: read-out: Activity
[4] = Antiproliferative activity against human RXF393 cells assessed as cell growth at 10^-5 M after 48 hrs by sulforhodamine B assay; conditions: RXF 393, 48 h, read-out: Activity
[5] = Antiproliferative activity against human IGROV1 cells assessed as cell growth at 10^-5 M after 48 hrs by sulforhodamine B assay; conditions: IGROV-1, 48 h, read-out: Activity
[6] = Antiproliferative activity against human SF295 cells assessed as cell growth at 10^-5 M after 48 hrs by sulforhodamine B assay; conditions: SF-295, 48 h, read-out: Activity
MDA-MB-468 = experiment: Antiproliferative activity against human MDA-MB-468 cells assessed as cell growth at 10^-5 M after 48 hrs by sulforhodamine B assay; conditions: MDA-MB-468, 48 h, read-out: Activity
NCI-H226 = experiment: Antiproliferative activity against human NCI-H226 cells assessed as cell growth at 10^-5 M after 48 hrs by sulforhodamine B assay; conditions: NCI-H226, 48 h, read-out: Activity
[7] = Cytotoxicity against human HCT116 cells assessed as growth inhibition at 10 uM after 2 days by MTT assay; conditions: HCT-116, 48 h, read-out: GI
SN12C = experiment: Antiproliferative activity against human SN12C cells assessed as cell growth at 10^-5 M after 48 hrs by sulforhodamine B assay; conditions: read-out: Activity
[8] = Antiproliferative activity against human OVCAR5 cells assessed as cell growth at 10^-5 M after 48 hrs by sulforhodamine B assay; conditions: OVCAR-5, 48 h, read-out: Activity
[9] = Antiproliferative activity against human MOLT4 cells assessed as cell growth at 10^-5 M after 48 hrs by sulforhodamine B assay; conditions: MOLT-4, 48 h, read-out: Activity
[10] = Antiproliferative activity against human Hs 578T cells assessed as cell growth at 10^-5 M after 48 hrs by sulforhodamine B assay; conditions: read-out: Activity
[11] = Antiproliferative activity against human SNB75 cells assessed as cell growth at 10^-5 M after 48 hrs by sulforhodamine B assay; conditions: SNB-75, 48 h, read-out: Activity
[12] = Cytotoxicity against human SKBR3 cells assessed as growth inhibition at 100 uM after 2 days by MTT assay; conditions: SK-BR-3, 48 h, read-out: GI
[13] = Cytotoxicity against human SKBR3 cells assessed as growth inhibition at 10 uM after 2 days by MTT assay; conditions: SK-BR-3, 48 h, read-out: GI
Malme-3M = experiment: Antiproliferative activity against human MALME-3M cells assessed as cell growth at 10^-5 M after 48 hrs by sulforhodamine B assay; conditions: read-out: Activity
[14] = Antiproliferative activity against human SF539 cells assessed as cell growth at 10^-5 M after 48 hrs by sulforhodamine B assay; conditions: SF-539, 48 h, read-out: Activity
[15] = Antiproliferative activity against human Caki1 cells assessed as cell growth at 10^-5 M after 48 hrs by sulforhodamine B assay; conditions: CAKI-1, 48 h, read-out: Activity
NCI-H322M = experiment: Antiproliferative activity against human NCI-H322M cells assessed as cell growth at 10^-5 M after 48 hrs by sulforhodamine B assay; conditions: read-out: Activity
[16] = Antiproliferative activity against human DU145 cells assessed as cell growth at 10^-5 M after 48 hrs by sulforhodamine B assay; conditions: DU-145, 48 h, read-out: Activity
NCI-H23 = experiment: Antiproliferative activity against human NCI-H23 cells assessed as cell growth at 10^-5 M after 48 hrs by sulforhodamine B assay; conditions: NCI-H23, 48 h, read-out: Activity
SR = experiment: Antiproliferative activity against human SR cells assessed as cell growth at 10^-5 M after 48 hrs by sulforhodamine B assay; conditions: read-out: Activity
SK-MEL-28 = experiment: Antiproliferative activity against human SK-MEL-28 cells assessed as cell growth at 10^-5 M after 48 hrs by sulforhodamine B assay; conditions: SK-MEL-28, 48 h, read-out: Activity
[17] = Antiproliferative activity against human HOP92 cells assessed as cell growth at 10^-5 M after 48 hrs by sulforhodamine B assay; conditions: HOP-92, 48 h, read-out: Activity
[18] = Antiproliferative activity against human SW620 cells assessed as cell growth at 10^-5 M after 48 hrs by sulforhodamine B assay; conditions: SW-620, 48 h, read-out: Activity
MCF7 = experiment: Antiproliferative activity against human MCF7 cells assessed as cell growth at 10^-5 M after 48 hrs by sulforhodamine B assay; conditions: MCF7, 48 h, read-out: Activity
786-0 = experiment: Antiproliferative activity against human 786-0 cells assessed as cell growth at 10^-5 M after 48 hrs by sulforhodamine B assay; conditions: 786-0, 48 h, read-out: Activity
[19] = Antiproliferative activity against human SF268 cells assessed as cell growth at 10^-5 M after 48 hrs by sulforhodamine B assay; conditions: SF-268, 48 h, read-out: Activity
[20] = Antiproliferative activity against human HCT15 cells assessed as cell growth at 10^-5 M after 48 hrs by sulforhodamine B assay; conditions: HCT-15, 48 h, read-out: Activity
[21] = Cytotoxicity against human HCT116 cells assessed as growth inhibition at 100 uM after 2 days by MTT assay; conditions: HCT-116, 48 h, read-out: GI
KM12 = experiment: Antiproliferative activity against human KM12 cells assessed as cell growth at 10^-5 M after 48 hrs by sulforhodamine B assay; conditions: KM12, 48 h, read-out: Activity
A498 = experiment: Antiproliferative activity against human A498 cells assessed as cell growth at 10^-5 M after 48 hrs by sulforhodamine B assay; conditions: A498, 48 h, read-out: Activity
[22] = Antiproliferative activity against human SNB19 cells assessed as cell growth at 10^-5 M after 48 hrs by sulforhodamine B assay; conditions: SNB-19, 48 h, read-out: Activity

Structure (SMILES) | growth at 10 µM [1] | growth at 10 µM [2] | growth at 10 µM [3] | growth at 10 µM (EKVX) | growth at 10 µM (SK-MEL-5) | growth at 10 µM (M14) | growth at 10 µM (ACHN) | growth at 10 µM [4] | growth at 10 µM [5] | growth at 10 µM [6] | growth at 10 µM (MDA-MB-468) | growth at 10 µM (NCI-H226) | inhibition of growth at 10 µM [7] | growth at 10 µM (SN12C) | growth at 10 µM [9] | growth at 10 µM [10] | growth at 10 µM [11] | inhibition of growth at 100 µM [12] | inhibition of growth at 10 µM [13] | inhibition of growth at 100 µM [21] | further results
CNC(=O)c1cc(Oc2ccc3nc(NC(=O)Nc4ccc(Cl)c(C(F)(F)F)c4)sc3c2)ccn1 | -1% | 14% | -29% | -50% | -62% | -29% | -67% | -45% | -36% | -68% | -40% | -14% | 82.8% | 1% | 38% | -17% | -75% | 94.5% | 79.6% | 94.4% | growth at 10 µM [8]: -13%; growth at 10 µM (Malme-3M): -62%; growth at 10 µM [14]: -60%; growth at 10 µM [15]: -16%; growth at 10 µM (NCI-H322M): -14%; growth at 10 µM [16]: -10%; growth at 10 µM (NCI-H23): -8%; growth at 10 µM (SR): -1%; growth at 10 µM (SK-MEL-28): -68%; growth at 10 µM [17]: -54%; growth at 10 µM [18]: 4%; growth at 10 µM (MCF7): -3%; growth at 10 µM (786-0): -64%; growth at 10 µM [19]: 1%; growth at 10 µM [20]: -9%; growth at 10 µM (KM12): 20%; growth at 10 µM (A498): 4%
CNC(=O)c1cc(Oc2ccc(NC(=O)Nc3ccc(Cl)c(C(F)(F)F)c3)cc2)ccn1 [SORAFENIB] |  |  |  |  |  |  |  |  |  |  |  |  | 48.4% |  |  |  |  | 93.1% | 48.9% | 97.3% | 
CNC(=O)c1cc(Oc2ccc3nc(NC(=O)Nc4ccc(Cl)c(Cl)c4)sc3c2)ccn1 | 26% | -23% | -50% | 16% | -32% | -47% | -30% | -74% | -20% | -81% | -36% | -56% | 69.8% | 14% | 76% | -23% | -69% | 92.6% | 69% | 91.9% | growth at 10 µM (Malme-3M): -71%; growth at 10 µM [14]: -49%; growth at 10 µM [15]: -25%; growth at 10 µM (NCI-H322M): -4%; growth at 10 µM [16]: -25%; growth at 10 µM (NCI-H23): 2%; growth at 10 µM (SR): 39%; growth at 10 µM [22]: -67%; growth at 10 µM (SK-MEL-28): -72%; growth at 10 µM [17]: -44%; growth at 10 µM [18]: 42%; growth at 10 µM (MCF7): 4%; growth at 10 µM (786-0): -41%; growth at 10 µM [19]: -57%; growth at 10 µM [20]: -19%; growth at 10 µM (KM12): 5%; growth at 10 µM (A498): -25%
CNC(=O)c1cc(Oc2ccc3nc(NC(=O)c4ccc(Cl)c(C(F)(F)F)c4)sc3c2)ccn1 | 80.6% | 75.3% | 61.9% | 78.8% | 70.9% | 89.9% | 60.6% | 47.9% | 85.8% | 78.3% | 48.5% | 93.4% | 30.2% | 75.6% | 67.3% | 66.2% | 39% | 86.5% | 6.26% | 92.3% | growth at 10 µM [8]: 93.3%; growth at 10 µM (Malme-3M): 57%; growth at 10 µM [14]: 69.9%; growth at 10 µM [15]: 95.2%; growth at 10 µM (NCI-H322M): 87.4%; growth at 10 µM [16]: 73%; growth at 10 µM (NCI-H23): 69.1%; growth at 10 µM (SR): 37.6%; growth at 10 µM (SK-MEL-28): 83%; growth at 10 µM [18]: 92.4%; growth at 10 µM (MCF7): 64.1%; growth at 10 µM [19]: 85.3%; growth at 10 µM [20]: 85%; growth at 10 µM (KM12): 67.7%; growth at 10 µM (A498): 69%
